In patent US20170196842A1, “METHODS OF TREATMENT USING A 1,2,4-OXADIAZOLE BENZOIC ACID” (PTC Therapeutics, Inc., priority 2014, published 2017):
Like-named read-outs stand apart in the source and are kept apart here.

Experiment: Pharmacokinetics of Compound 1 delivered via solid chow (plasma, LC-MS/MS)
Assay type: in vivo, C57BL/6J mice
Settings: for Tmax / Tmin / Cmin / AUC / Cmax: C57BL/6J mice; for AUC / Cmax: C57BL/6J, mouse, plasma, po; for AUC: read-out: AUC9-10
Procedure: The pharmacokinetics of Compound 1 at three doses (0.1%, 0.3% or 1% (w/w)) when delivered via solid chow was determined in satellite wild type C57BL/6J mice. The first day Compound 1 was provided was defined as Day 0. On Day 3 and on Day 13 blood was obtained from mice at specified time points and the plasma concentration of Compound 1 was measured using liquid chromatography-tandem mass spectrometry.
AUC9-10 refers to area under the curve plotting plasma concentration over time (9 am to 10 pm) (hr·μg/mL); Cmax refers to maximal plasma concentration (μg/mL); Cmin refers to minimal plasma concentration (μg/mL); Tmax refers to the time at which the maximal plasma concentration was measured; and Tmin refers to the time at which the minimal plasma concentration was measured.

[1] = 0.1% (w/w) in chow, Day 3, clock time
[2] = 0.1% (w/w) in chow, Day 13, clock time
[3] = 0.3% (w/w) in chow, Day 3, clock time
[4] = 0.3% (w/w) in chow, Day 13, clock time
[5] = 1.0% (w/w) in chow, Day 3, clock time
[6] = 1.0% (w/w) in chow, Day 13, clock time

Compound: O=C(O)c1cccc(-c2noc(-c3ccccc3F)n2)c1 [Compound 1, 3-[5-(2-fluoro-phenyl)-[1,2,4]oxadiazol-3-yl]-benzoic acid]
- Tmax [1]: 10 pm
- Tmin [1]: 1 pm
- Cmin (0.1% (w/w) in chow, Day 3, plasma): 760 ng/mL
- Tmax [2]: 10 pm
- Tmin [2]: 1 pm
- Cmin (0.1% (w/w) in chow, Day 13, plasma): 1000 ng/mL
- Tmax [3]: 10 pm
- Tmin [3]: 1 pm
- Cmin (0.3% (w/w) in chow, Day 3, plasma): 3700 ng/mL
- Tmax [4]: 10 pm
- Tmin [4]: 9 am
- Cmin (0.3% (w/w) in chow, Day 13, plasma): 4600 ng/mL
- Tmax [5]: 4 pm
- Tmin [5]: 1 pm
- Cmin (1.0% (w/w) in chow, Day 3, plasma): 21000 ng/mL
- Tmax [6]: 4 pm
- Tmin [6]: 9 am
- Cmin (1.0% (w/w) in chow, Day 13, plasma): 19000 ng/mL
- AUC (0.1 % (w/w) in chow, 0.1% (w/w) in chow, Day 3, 9 am to 10 pm): 35000 ng·h/mL
- Cmax (0.1 % (w/w) in chow, 0.1% (w/w) in chow, Day 3, plasma): 5200 ng/mL
- AUC (0.1 % (w/w) in chow, 0.1% (w/w) in chow, Day 13, 9 am to 10 pm): 28000 ng·h/mL
- Cmax (0.1 % (w/w) in chow, 0.1% (w/w) in chow, Day 13, plasma): 3600 ng/mL
- AUC (0.3 % (w/w) in chow, 0.3% (w/w) in chow, Day 3, 9 am to 10 pm): 109000 ng·h/mL
- Cmax (0.3 % (w/w) in chow, 0.3% (w/w) in chow, Day 3, plasma): 19000 ng/mL
- AUC (0.3 % (w/w) in chow, 0.3% (w/w) in chow, Day 13, 9 am to 10 pm): 89000 ng·h/mL
- Cmax (0.3 % (w/w) in chow, 0.3% (w/w) in chow, Day 13, plasma): 13000 ng/mL
- AUC (1 % (w/w) in chow, 1.0% (w/w) in chow, Day 3, 9 am to 10 pm): 420000 ng·h/mL
- Cmax (1 % (w/w) in chow, 1.0% (w/w) in chow, Day 3, plasma): 41000 ng/mL
- AUC (1 % (w/w) in chow, 1.0% (w/w) in chow, Day 13, 9 am to 10 pm): 594000 ng·h/mL
- Cmax (1 % (w/w) in chow, 1.0% (w/w) in chow, Day 13, plasma): 58000 ng/mL
- Plasma concentrations (range over time points) (mice, 1.0% (w/w) in chow): 19000 to 58000 ng/mL
